Reference: PMC5859971 (Genes & Development, 2018)
“Also recorded” adds a separate entry of the source.

Tests used:
[1] = molecular target: T1, PHF5A^Y36C mutant complex (Homo sapiens, UniProt O75533+Q7RTV0, Y36C); assay: MST compound binding to PHF5A^Y36C mutant complex; settings: result in words
T1 construct: SF3B1 was limited to the HEAT repeat domain from residues 454–1304 and cloned in-frame with an N-terminal Flag tag; Truncated SF3B1 and full-length SF3B3, PHF5A, and SF3B5 were synthesized; Flag (N); made in house; host or cells: SF21 insect cells (inferred to be made as the wild-type complex)
T1 sequence (Q15393 whole entry, the tested form may be a part): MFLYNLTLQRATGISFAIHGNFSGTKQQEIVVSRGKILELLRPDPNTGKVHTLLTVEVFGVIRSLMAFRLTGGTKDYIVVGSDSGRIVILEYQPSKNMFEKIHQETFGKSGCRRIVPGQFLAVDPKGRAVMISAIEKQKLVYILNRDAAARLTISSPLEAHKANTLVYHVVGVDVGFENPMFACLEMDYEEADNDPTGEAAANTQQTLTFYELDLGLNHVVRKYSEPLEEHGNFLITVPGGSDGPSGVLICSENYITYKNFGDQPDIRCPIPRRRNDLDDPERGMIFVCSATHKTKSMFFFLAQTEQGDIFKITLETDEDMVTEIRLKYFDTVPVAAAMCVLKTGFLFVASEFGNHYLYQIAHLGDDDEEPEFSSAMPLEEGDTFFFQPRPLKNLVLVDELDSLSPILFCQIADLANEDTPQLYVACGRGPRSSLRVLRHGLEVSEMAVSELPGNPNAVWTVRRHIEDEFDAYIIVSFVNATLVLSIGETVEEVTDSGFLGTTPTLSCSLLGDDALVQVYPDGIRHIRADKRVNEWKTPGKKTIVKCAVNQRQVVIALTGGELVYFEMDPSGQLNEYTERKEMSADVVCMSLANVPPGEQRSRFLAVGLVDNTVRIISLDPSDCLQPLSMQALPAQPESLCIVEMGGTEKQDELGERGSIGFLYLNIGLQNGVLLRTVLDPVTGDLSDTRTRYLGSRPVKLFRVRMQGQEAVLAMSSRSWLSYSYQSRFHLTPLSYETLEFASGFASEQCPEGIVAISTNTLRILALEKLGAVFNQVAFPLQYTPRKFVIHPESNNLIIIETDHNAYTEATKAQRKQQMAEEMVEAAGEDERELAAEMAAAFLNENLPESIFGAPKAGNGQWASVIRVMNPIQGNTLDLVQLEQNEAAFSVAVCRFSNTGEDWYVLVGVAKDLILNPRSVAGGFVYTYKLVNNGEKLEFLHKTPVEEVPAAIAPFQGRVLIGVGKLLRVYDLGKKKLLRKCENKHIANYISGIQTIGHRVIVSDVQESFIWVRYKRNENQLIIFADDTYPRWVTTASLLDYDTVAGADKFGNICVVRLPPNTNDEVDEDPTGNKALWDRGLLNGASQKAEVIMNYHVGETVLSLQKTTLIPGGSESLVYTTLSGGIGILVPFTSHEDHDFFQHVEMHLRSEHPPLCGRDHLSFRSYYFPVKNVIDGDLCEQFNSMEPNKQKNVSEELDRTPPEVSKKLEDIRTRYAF
T1 sequence (Q9BWJ5 whole entry, further chain, the tested form may be a part): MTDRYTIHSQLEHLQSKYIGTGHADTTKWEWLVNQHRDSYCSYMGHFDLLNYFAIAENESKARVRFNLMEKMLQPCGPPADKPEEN
T1 sequence (O75533 454-1304): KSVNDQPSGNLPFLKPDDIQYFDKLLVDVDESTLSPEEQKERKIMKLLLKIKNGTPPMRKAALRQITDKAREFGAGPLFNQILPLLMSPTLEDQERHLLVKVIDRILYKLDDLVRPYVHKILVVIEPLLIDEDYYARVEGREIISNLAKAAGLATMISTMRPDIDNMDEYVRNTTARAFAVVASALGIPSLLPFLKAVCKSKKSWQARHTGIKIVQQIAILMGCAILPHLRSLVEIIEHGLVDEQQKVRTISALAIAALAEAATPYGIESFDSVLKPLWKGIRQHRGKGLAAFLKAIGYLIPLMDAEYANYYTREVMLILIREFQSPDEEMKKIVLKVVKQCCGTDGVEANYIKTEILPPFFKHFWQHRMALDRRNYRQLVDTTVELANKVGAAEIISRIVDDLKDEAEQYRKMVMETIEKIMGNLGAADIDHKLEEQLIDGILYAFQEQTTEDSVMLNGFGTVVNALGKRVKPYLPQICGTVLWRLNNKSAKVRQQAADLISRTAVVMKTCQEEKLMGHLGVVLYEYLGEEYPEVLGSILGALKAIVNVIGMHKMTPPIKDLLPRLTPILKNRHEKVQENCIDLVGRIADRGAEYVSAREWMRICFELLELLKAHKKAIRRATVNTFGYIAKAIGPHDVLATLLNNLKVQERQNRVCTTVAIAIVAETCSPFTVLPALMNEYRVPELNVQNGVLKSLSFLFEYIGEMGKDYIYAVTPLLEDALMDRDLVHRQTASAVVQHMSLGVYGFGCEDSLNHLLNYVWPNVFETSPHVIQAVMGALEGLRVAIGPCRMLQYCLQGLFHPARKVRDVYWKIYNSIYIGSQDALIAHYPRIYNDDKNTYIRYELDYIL
T1 sequence (Q7RTV0 whole entry Y36C, the tested form may be a part): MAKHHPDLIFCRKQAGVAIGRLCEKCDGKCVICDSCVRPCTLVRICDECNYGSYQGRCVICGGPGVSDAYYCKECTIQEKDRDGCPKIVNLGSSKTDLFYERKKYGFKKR
Procedure: The four-protein complex composed of the HEAT repeats of SF3B1 (residues 454–1304) as well as full-length SF3B3, SF3B5, and PHF5A was coexpressed and purified from insect cells. This complex is necessary and sufficient for compound binding in a scintillation proximity assay (SPA) format ([Teng et al. 2017]).
The SF3b subcomplex was first titrated against a fixed concentration (25 nM) of fluorescent label (NTA-647) to determine the optimal concentrations of protein and label for the MST experiment. After 15 min of incubation at room temperature, samples were loaded into Monolith NT.115 capillaries, and MST analysis was performed using a Monolith NT.115Pico. […] For subsequent compound-binding experiments, the SF3b subcomplex bound to NTA-647 was fixed at 10 nM, and the compound was titrated from 50 µM to 3 pM. After 15 min of incubation, samples were loaded into capillaries, and analysis was performed as described previously.

[2] = test system: splicing of Ad2.2 pre-mRNA substrate; assay: In vitro splicing (IVS) assay, Ad2.2 substrate, HeLa S3 nuclear extracts, RT-qPCR; assay type: biochemical, human
Text: A substrate competitive mechanism of action (MOA) would predict that weaker pre-mRNA substrates would be easier to inhibit than stronger substrates. To date, it has not been possible to evaluate substrate competition using traditional steady-state conditions because splicing reactions are thought to be single-turnover events in vitro, and therefore it is not possible to measure a KM for the pre-mRNA. […] Specifically, we engineered the strong in vitro splicing substrate Ad2.1 by enhancing the U2 snRNP base-pairing around the BPA found in the Ad2 substrate. We then engineered a weaker substrate, Ad2.2, by adding a decoy BPS lacking an extrahelical adenosine (Ad2.2) (Fig. 5A; Supplemental Vector NTI files; [Corrionero et al. 2011]). […] We then evaluated E7107 and several chemical probes to better understand their mechanism.
Figure 5. […] (A) Base-pairing logic for IVS substrates. (BPRS) Branch point recognition sequence in U2 snRNA; (BPS) the BPS in the pre-mRNA. The Ad2 gene BPS sequence (UACUUAU) was modified (UACUAAU) to strengthen the U2 base-pairing interactions flanking the BPA, leading to the Ad2.1 substrate (BPA in red). The Ad2.2 sequence has the same BPS as Ad2 but also contains a 5′ decoy BPS sequence (lacking an extrahelical adenine) that can base-pair with the BPRS. The decoy BPS and suboptimal BPS overlap, which gives U2 at least two possibilities for possible base pairing, as indicated. […] (B) RT-qPCR time-course data showing product formation over time. […] (C) Representative IC50 curves for compound 6 using the two different substrates (Ad2.1 and Ad2.2).
The Ad2-derived ([Pellizzoni et al. 1998]) sequence was cloned into the pGEM-3Z vector (Promega) using 5′ EcoRI and 3′ XbaI restriction sites. The Ad2 variant (Ad2.2) ([Seiler et al. 2018]) was cloned into pcDNA3.1(+) vector (Promega) using the same restriction sites. The plasmids were linearized using XbaI and used as DNA templates in the in vitro transcription reactions. The FtzΔi intron-less plasmid ([Luo and Reed 1999]) was linearized using EcoRI. All RNAs were in vitro transcribed and then purified using MegaScript T7 and MegaClear kits, respectively (Invitrogen). For splicing reactions used with the Ad2.2 substrate, […] reactions were prepared using 8 µg of nuclear extracts prepared from HeLa S3, a saturating excess of 2 ng of pre-mRNA substrate, 0.2 ng of FTZΔi, and varying concentrations of compounds or DMSO.

## CCC(O)C(C)C1OC1CC(C)(O)C=CC=C(C)C1OC(=O)CC(O)CCC(C)(O)C(OC(=O)N2CCN(C3CCCCCC3)CC2)C=CC1C (stereo not drawn) [Compound E7107]
[1]
  binding to PHF5A^Y36C mutant complex: no binding was detected; also recorded: not able to bind
[2]; Ad2.1 and Ad2.2 substrates compared
  inhibition of strong and weak IVS substrates: inhibit both the strong and weak substrates equally well
[2]; Ad2.2 (weak) substrate
  IC50: 9.9 nM
